{"source": "patent US20070158611A1", "about": "“Compositions comprising nanorods and methods of making and using them” (priority 2005, published 2007)", "test_system": "Acidovorax delafieldii (ATCC #17505)", "test": "Bactericidal properties of silver nanofluids, colony count on NB agar plates", "type": "cell-based", "description": "The addition of nanostructures to fluids can prevent bacterial growth. The bactericidal properties of spherical silver colloid and silver nanorods was measured and compared with the bactericidal properties of silver nitrate. Lyophilized Acidovorax delafieldii (ATCC #17505) bacterium was reconstituted in Difco Nutrient Broth (NB), streaked onto NB agar plates and incubated for 24 hours at 37° C. A single colony was isolated and used to inoculate an NB culture that was grown to mid-log phase where the visibly cloudy solution has an optical density of 0.3 at a wavelength of 600 nm. 10 μL of this preculture (˜2.3×10^4 CFU/mL) was mixed with 5 mL of NB medium that contained 0.2 mg/mL, 0.02 mg/mL, 2 μg/mL, 0.02 μg/mL, and 0.002 μg/mL concentrations of either silver nitrate (AgNO3), silver colloid, or silver nanorods. […] Viable cells were enumerated by the colony count method on NB agar plates.", "data": [{"smiles": "O=[N+]([O-])[O-].[Ag+]", "note": "[AgNO3, silver nitrate]", "values": [{"measurement": "biocide activity compared with other silver samples", "setting": "28 hours, 37° C.", "result": "highest biocide activity"}, {"measurement": "CFU/mL", "setting": "Acidovorax delafieldii in NB after 28 hours of incubation at 37° C., sample concentration as in Sample cell (text: 0.2 μg/mL Ag)", "result": "1.2 × 10^3 CFU/mL"}]}]}
